Structures are written as SMILES.

Data set [1] concerns Myzus persicae. Briefly: Myzus persicae spray test. Conditions: for mortality: 100 g/ha, after 6 days, Chinese cabbage leaf disks. It counts as in vivo. On the procedure:
Myzus persicae—Spray Test
(§1) Solvent: 78.0 parts by weight acetone • 1.5 parts by weight dimethylformamide
(§2) Emulsifier: alkylarylpolyglycol ether
(§3) To produce a suitable preparation of active compound, 1 part by weight of active compound is mixed with the stated amount of solvents and is diluted with water, containing an emulsifier concentration of 1000 ppm, to the desired concentration. Further test concentrations are prepared by dilution with emulsifier containing water.
Chinese cabbage (Brassica pekinensis) leaf disks infected with all instars of the green peach aphid (Myzus persicae), are sprayed with a preparation of the active ingredient of the desired concentration.
After 6 days mortality in % is determined. 100% means all aphids have been killed and 0% means none of the aphids have been killed.

A further data set concerns Lucilia cuprina. Briefly: Lucilia cuprina test (LUCICU). Type of data set: in vivo. Conditions: 48 h. The protocol: Lucilia cuprina—Test (LUCICU)
(§4) Solvent: dimethyl sulfoxide
10 mg active compound are dissolved in 0.5 ml Dimethylsulfoxid. Serial dilutions are made to obtain the desired rates.
Approximately 20 1st instar larvae of the Australian sheep blowfly (Lucilia cuprina) are transferred into a test tube containing minced horse meat and compound solution of the desired concentration.
After 2 days mortality in % is determined. 100% means all the larvae have been killed; 0% means none of the larvae have been killed.

Another data set in a line: Log P (HCOOH). Type of data set: physicochemical. Conditions: HCOOH (formic acid); read-out: Log P-Wert (HCOOH).
In the next data set the test system is Musca domestica. As to the kind of experiment: Musca domestica test (MUSCDO). It counts as in vivo. Conditions: for mortality: after 2 days, adult house flies. On the procedure:
Musca domestica—Test (MUSCDO)
as §4
To produce a suitable preparation of active compound, 10 mg of active compound are dissolved in 0.5 ml solvent, and the concentrate is diluted with water to the desired concentration.
10 adult house flies (Musca domestica) are transferred into a container, containing a sponge soaked with a mixture of sugar solution and compound solution of the desired concentration.
After 2 days mortality in % is determined. 100% means all the flies have been killed; 0% means none of the flies have been killed.

The next data set relates to Diabrotica balteata. Briefly: Diabrotica balteata spray test. It counts as in vivo. Particulars: 160 μg/well, after 7 days, larvae on germinated wheat seeds. The protocol:
Diabrotica balteata—Spray Test
(§5) Solvent: 78.0 parts by weight of acetone • • 1.5 parts by weight of dimethylformamide
as §2
(§6) To produce a suitable preparation of active compound, 1 part by weight of active compound is mixed with the stated amount of solvent, and the concentrate is diluted with water, containing an emulsifier concentration of 1000 ppm, to the desired concentration. Further test concentrations are prepared by dilution with emulsifier containing water.
Soaked wheat seeds (Triticum aestivum) are placed in a multiple well plate filled with agar and some water and are incubated for 1 day to germinate (5 seeds per well). The germinated wheat seeds are sprayed with a test solution containing the desired concentration of the active ingredient. Afterwards each unit is infected with 10-20 larvae of the banded cucumber beetle (Diabrotica balteata).
After 7 days efficacy in % is determined. 100% means all the seedlings have grown up like in the untreated, uninfected control; 0% means none of the seedlings have grown.

Another data set concerns Ctenocephalides felis. As to the kind of experiment: Ctenocephalides felis in-vitro contact test, adult cat flea. Conditions: 5 μg/cm^2 (=500 g/ha), after 48 hours. It counts as in vivo. The protocol: Ctenocephalides felis—In-Vitro Contact Tests Adult Cat Flea
9 mg compound is solved in 1 ml acetone and diluted with acetone to the desired concentration. 250 μl of the test solution is filled in 25 ml glass test tubes and homogeneously distributed on the inner walls by rotation and tilting on a shaking device (2 h at 30 rpm). With a compound concentration of 900 ppm, an inner surface of 44.7 cm^2 and a homogeneous distribution, a dose of […] is achieved.
After the solvent has evaporated, each test tube is filled with 5-10 adult cat fleas (Ctenocephalides felis), closed with a perforated lid and incubated in a lying position at room temperature and relative humidity. After 48 hours efficacy is determined. The fleas are patted on the ground of the tubes and are incubated on a heating plate at 45-50° C. for at most 5 minutes. Immotile or uncoordinated moving fleas, which are not able to escape the heat by climbing upwards, are marked as dead or moribund.
An efficacy of 100% means all fleas are dead or moribund; 0% means no fleas are dead or moribund.

A further data set deals with Tetranychus urticae. Briefly: whole plant or invertebrate. It counts as in vivo. Particulars: in Phaseolus vulgaris, foliar, 144 h. On the procedure:
Tetranychus urticae—Spray Test OP-Resistant
as §1, §2, §3
French bean (Phaseolus vulgaris) leaf disks infected with all instars of the two spotted spidermite (Tetranychus urticae), are sprayed with a preparation of the active ingredient of the desired concentration.
After 6 days mortality in % is determined. 100% means all spider mites have been killed and 0% means none of the spider mites have been killed.

The subject of data set [2] is Myzus persicae. As to the kind of experiment: Myzus persicae oral test. Type of data set: in vivo. On the procedure: Solvent: 100 parts by weight acetone
To produce a suitable preparation of active compound, 1 part by weight of active compound is mixed with the stated amount of solvent, and the concentrate is diluted with water to the desired concentration. 50 μl compound solution is filled in microtiter plates and 150 μl IPL41 insect medium (33%+15% sugar) is added to obtain a total volume of […] per well. Afterwards the plates are sealed with parafilm through which a mixed population of the green peach aphid (Myzus persicae) can suck on the compound preparation.
After 5 days mortality in % is determined. 100% means all aphids have been killed and 0% means none of the aphids have been killed.

The subject of a further data set is Nezara viridula. Briefly: Nezara viridula spray test. It counts as in vivo. On the procedure: Nezara viridula—Spray Test
as §5, §2, §6
Barley plants (Hordeum vulgare) infested with larvae of the southern green stink bug (Nezara viridula) are sprayed with a test solution containing the desired concentration of the active ingredient.
After 4 days mortality in % is determined. 100% means all the stink bugs have been killed; 0% means none of the stink bugs have been killed.

A further data set relates to Nilaparvata lugens. Briefly: Nilaparvata lugens spray test. It counts as in vivo. The protocol: Nilaparvata lugens—Spray Test
as §5, §2, §3
Rice plants (Oryza sativa) are sprayed with a preparation of the active ingredient of the desired concentration and the plants are infested with the brown planthopper (Nilaparvata lugens).
After 4 days mortality in % is determined. 100% means all planthoppers have been killed and 0% means none of the planthoppers have been killed.

For another data set, the system named is Phaedon cochleariae. As to the kind of experiment: Phaedon cochleariae spray test. It counts as in vivo. Conditions: 20 g/ha, after 7 days, larvae on Chinese cabbage leaf disks. On the procedure: Phaedon cochleariae—Spray Test
as §5, §2, §3
Chinese cabbage (Brassica pekinensis) leaf disks are sprayed with a preparation of the active ingredient of the desired concentration. Once dry, the leaf disks are infested with mustard beetle larvae (Phaedon cochleariae).
After 7 days mortality in % is determined. 100% means all beetle larvae have been killed and 0% means none of the beetle larvae have been killed.

[3] abbreviates: Myzus persicae, in Brassica rapa, foliar, 144 h.

Usually mortality stands for the share of the test organisms that died. Lower therefore signals more survivors. `O=C(/C=C1\SCCN1Cc1ccc(Cl)nc1)C(F)(F)F` [Example I-1, 3-[3-[(6-Chloro-3-pyridinyl)methyl]-2-thiazolidinylidene]-1,1,1-trifluoro-2-propanone] had a mortality at 100 g/ha in the data set on Myzus persicae [1] (setting [3]) of 90%. Also, the mortality at 100 ppm in the data set on Lucilia cuprina worked out at 100%. For the same compound, in “Log P (HCOOH)”, the chromatographic logP was determined as 2.21. Moreover, the mortality at 4 ppm in the data set with Musca domestica (Musca domestica, 48 h) amounted to 90%. Further, the “efficacy (seedlings grown)” value in the data set on Diabrotica balteata was found to be 100%. The “efficacy (fleas dead or moribund)” value with Ctenocephalides felis worked out at 100%.

As to `O=C(/C=C1\SCCN1Cc1ccc(F)nc1)C(F)(F)F` [Example I-2, 3-[3-[(6-Fluoro-3-pyridinyl)methyl]-2-thiazolidinylidene]-1,1,1-trifluoro-2-propanone], the mortality at 500 g/ha was 100% with Myzus persicae [1] (setting [3]); 80% with Tetranychus urticae; 90% in the data set on Nezara viridula (Nezara viridula, in Hordeum vulgare, 96 h); 100% with Nilaparvata lugens (Nilaparvata lugens, in Oryza sativa, 96 h). Moreover, the mortality at 20 ppm with Myzus persicae [2] (Myzus persicae, po, 120 h) was 100%; in the data set with Musca domestica (Musca domestica, 48 h), 95%. The compound also yielded a mortality at 100 ppm with Lucilia cuprina of 100%. Also, the chromatographic logP in “Log P (HCOOH)” turned out to be 2.25. The compound also came in with a mortality at 4 ppm with Musca domestica (Musca domestica, 48 h) of 80%. The “efficacy (seedlings grown)” value in the data set with Diabrotica balteata was 100%. The “efficacy (fleas dead or moribund)” value in the data set on Ctenocephalides felis is recorded as 100%.

The compound `O=C(/C=C1\NCCN1Cc1ccc(Br)nc1)C(F)(F)F` [Example I-3, 3-[1-[(6-Bromo-3-pyridinyl)methyl]-2-imidazolidinylidene]-1,1,1-trifluoro-2-propanone] registered a mortality at 100 g/ha in the data set on Myzus persicae [1] (setting [3]) of 90%. This compound also registered a mortality at 100 ppm in the data set with Lucilia cuprina of 100%. In addition, the mortality at 4 ppm with Musca domestica (Musca domestica, 48 h) was 80%. Also, in the data set with Diabrotica balteata, the “efficacy (seedlings grown)” value is recorded as 100%. In the data set on Ctenocephalides felis, the “efficacy (fleas dead or moribund)” value was 100%.

In the data set on Musca domestica (4 ppm), `O=C(C=C1SCCN1Cc1ccc(Br)nc1)C(F)(F)F` [Example I-4] yielded a mortality of 100%. Further, the “efficacy (seedlings grown)” value in the data set on Diabrotica balteata is 100%. Also, the “efficacy (fleas dead or moribund)” value in the data set with Ctenocephalides felis is 100%.

On to `O=C(C=C1NCCN1Cc1ccc(Cl)nc1)C(F)(F)F` [Example I-5], for which the mortality in the data set with Musca domestica (4 ppm) amounted to 100%. Further, the “efficacy (fleas dead or moribund)” value in the data set on Ctenocephalides felis turned out to be 100%.

Take `O=C(C=C1NCCCN1Cc1ccc(F)nc1)C(F)(F)F` [Example I-6]: the mortality in the data set on Musca domestica (20 ppm) was found to be 100%. In the data set with Diabrotica balteata, the “efficacy (seedlings grown)” value is 100%. Further, the “efficacy (fleas dead or moribund)” value in the data set on Ctenocephalides felis is 100%.

Take `O=C(C=C1NCCCN1Cc1ccc(Cl)nc1)C(F)(F)F` [Example I-7]: the values for the mortality with Myzus persicae [1] and with Phaedon cochleariae were 90% and 100%, respectively. Further, in the data set on Ctenocephalides felis, the “efficacy (fleas dead or moribund)” value turned out to be 100%.

As for `O=C(C=C1NCCCN1Cc1ccc(Br)nc1)C(F)(F)F` [Example I-8], the mortality is 90% in the data set on Myzus persicae [1]; 100% in the data set with Myzus persicae [2] (20 ppm, after 5 days, oral); 90% in the data set with Nezara viridula (500 g/ha, after 4 days, larvae on barley plants); 100% in the data set with Phaedon cochleariae; 100% with Musca domestica (20 ppm); 100% in the data set on Nilaparvata lugens (500 g/ha, after 4 days, rice plants). The “efficacy (seedlings grown)” value with Diabrotica balteata amounted to 100%. Besides, the “efficacy (fleas dead or moribund)” value in the data set with Ctenocephalides felis was found to be 100%.

These data come from US20190159451A1, “ACTIVE COMPOUND COMBINATIONS AND METHODS TO PROTECT THE PROPAGATION MATERIAL OF PLANTS” (Bayer CropScience Aktiengesellschaft, priority 2016, published 2019).
